Results from patent publication US20020164581A1 (priority 2001, published 2002).
Values joined by “and” are separate entries in the source; they are usually repeats but may differ in a detail not shown here. Equal entries are not always repeated. Where two headings read alike, the source gives them in different places.

Experiments:
[1] = system: antioxidant enzymes (SOD, CAT, GPX, GR) in bAECs; assay: Antioxidant enzyme (AOE) activities in cell lysates, all four enzymes together; assay type: cell-based, bovine
Method: […] The cells were then lysed on ice by sonication at a setting of 50 mW, with 3×15 set cycles using a Cole-Parmer Ultrasonic Homogenizer (Chicago, Ill.). Protein concentrations in the samples were determined by the Bradford method with bovine serum albumin as a standard (Bradford, Anal. Biochem. 72:248-254, 1976).
SOD activity was determined by a method based on the ability of SOD to suppress epinephrine auto-oxidation (Misra and Fridovich, J.Biol. Chem. 247:3170-3175, 1972). One unit of SOD activity is defined as the amount of protein that inhibits the oxidation of epinephrine by 50%. Briefly, 100 μl of 10×-diluted cell homogenate (about 10 μg protein) was added to 900 μl of carbonate buffer (0.1 M NaHCO3, 0.1 M Na2CO3, 0.1 mM EDTA, pH 10.2) containing 0.7 mM of epinephrine. The absorbency of the mixture was measured for 4 minutes at 480 nm using a Hitachi U-2000 spectrophotometer (Hitachi, San Jose, Calif.).
(§1) CAT activity was determined by the method of Aebi (Methods Enzymol. 105:121,-126, 1984). One unit of CAT activity is defined as the amount of protein that degrades 1 μmole of H2O2 per minute. Initially, 10 μl of absolute ethanol was mixed with 100 μl of cell homogenates and pre-incubated at 4° C. for 30 minutes. Following the addition of 10 μl Triton X-100 (reduced form), a 100 μl aliquot (about 100 μg of protein) of the resultant mixture was next added to 500 μl of hydrogen peroxide (66 mM) and 400 μl of phosphate buffer (0.1 M NaH2PO4, 0.1 M Na2HPO4, 0.1 mM EDTA, pH 7.0). The absorbency of the mixture was monitored for one minute at 240 nm spectrophotometrically. The molar extinction coefficient of 43.6 M/cm was used to determine the catalase activity.
(§2) GPX activity was determined by a modified method of Flohe and Gunzler (Methods Enzymol. 105:114-121, 1984). One unit of GPX activity is defined as the amount of protein that oxidizes 1 nmole of β-NADPH per minute. In this assay, 100 μl of cell homogenate (about 100 μg protein) was added to 800 μl of phosphate buffer (0.1 M NaH2PO4, 0.1 M Na2HPO4, 0.1 mM EDTA, pH 7.0) containing 12.5 mM glutathione (reduced form, GSH), 0.2 mM β-nicotinamide adenine dinucleotide phosphate (reduced form, β-NADPH), and 0.34 U glutathione reductase. This mixture was pre-incubated at 37 C for 10 minutes and then 100 μl of 12 mM t-butyl hydroperoxide was added. The absorbency of the mixture was determined at 340 nm for 3 minutes. The molar extinction coefficient of 6.22 mM/cm was used to determine the activity of GPX.
GR activity was determined by a modified method of Carlberg and Mannervik (Methods Enzymol. 11 3:484-490, 1985). One unit of GR activity is defined as the amount of protein that oxidizes 1 nmole of β-NADPH per minute. Briefly, 50 μl of 2 mM β-NADPH in 10 mM Tris buffer (pH 7.0) was added to a cuvette containing 50 μl of 20 mM glutathione (oxidized ofrm, GSSG) in phosphate buffer (0.1 M NaH2PO4, 0.1 M Na2HPO4, 0.1 mM EDTA, pH 7.0) and 800 μl of phosphate buffer. Following the addition of cell homogenate (about 100 μg protein/100 μl) the final mixture was measured at 340 nm for 3 minutes. The molar extinction coefficient of 6.22 mM/cm was used to determine the activity of […].

catalase (CAT) = assay: CAT activity in cell lysate (H2O2 degradation); assay type: cell-based, bovine
Method: (§3) Cells pretreated with different concentrations of E2 for 24 hours were harvested in a solution containing 50 mM Tris-HCl (pH 7.4), 1 mM EDTA, 2 μg/ml pepstatin A, 10 μg/ml benzamidine, and 10 μg/ml trypsin inhibitor. The cells were then lysed on ice by sonication at a setting of 50 mW, with 3×15 set cycles using a Cole-Parmer Ultrasonic Homogenizer (Chicago, Ill.). Protein concentrations in the samples were determined by the Bradford method with bovine serum albumin as a standard (Bradford, Anal. Biochem. 72:248-254, 1976).
as §1

[2] = system: glutathione peroxidase (GPX); assay: GPX activity in cell lysate (NADPH oxidation); assay type: cell-based, bovine
Method: as §3, §2

female and male bAECs = assay type: cell-based, bovine; settings: for mean DCFH fluorescence: separate set of donors, 45-minute paraquat exposure
Method: For flow cytometric analysis (after E2 treatment), female and male bAECs were trypsinized, rinsed, and resuspended in PBS containing 2% BSA at a density of 5×10^5 cells/ml. The cells were loaded with dichlorofluorescin diacetate (Molecular Probes, Eugene, Oreg.) (dissolved in DMSO) at 5 μg/ml for 15 minutes followed by paraquat insult (1 mM) at room temperature in the dark. At the designated times, aliquots were withdrawn, placed on ice, and the fluorescence of oxidized DCFH was analyzed by a FACSCalibur™ flow cytometer (Becton-Dickinson, San Jose, Calif.) equipped with an argon laser. A collection filter for the green emission of oxidized DCFH (530/30 nm) was used. Fluorescence signal was collected in log mode and analyzed using Cellquest™ software (Becton-Dickinson).
SOD can dismutate the superoxide radical to hydrogen peroxide, which is subsequently detoxified by CAT or GPX. […] This theory was tested by comparing the level of ROS in female and male bAECs during subsequent oxidant exposure. Following E2 treatment for 24 hours, cells were loaded with dichlorofluorescein diacetate, which penetrates their plasma membranes and is converted to 2′,7′-dichlorofluorescein (DCFH) by intracellular esterases. This nonfluorescent compound, once oxidized by ROS such as hydrogen peroxide, turns to a highly fluorescent derivative.

LDL = settings: 5-50 μM; oxidation by copper ions, monocytes, or endothelial cells; cited from earlier work
[3] = 1 nM E2 pretreatment (Example 8)
[4] = female bAECs, 24 h 1 nM E2 (Example 12)

Compound: C[C@]12CC[C@@H]3c4ccc(O)cc4CC[C@H]3[C@@H]1CC[C@@H]2O [E2, 17β-estradiol]
- AOE activities after brief incubation ([1]; 1 nM E2, 30 minutes): did not affect the activities of AOEs
- activities of the four antioxidant enzymes ([1]; 1 nM-10 μM E2, 24 h): significant increases in the activities of all four of the enzymes tested
- E2 concentration of optimal AOE induction ([1]; 24 h pretreatment): 1 to 10 nM
- AOE activities ([1]; female bAECs, 24 hour, 1 nM E2): significant elevation of all of the four AOE activities tested
- AOE activities ([1]; male bAECs incubated with 1 nM E2): not induced
- CAT activity elevation relative to untreated cells (catalase (CAT); [3]): ~2 fold
- CAT activity increase (catalase (CAT); [4]): ~2 fold
- GPX activity elevation relative to untreated cells [2, 3]: ~2 fold
- GPX activity increase [2, 4]: ~3 fold
- mean fluorescence intensity of oxidized DCFH (female and male bAECs): 795 and 1323
- basal level of DCFH oxidation, female vs male (female and male bAECs; E2-pretreated cells, before paraquat): similar
- mean DCFH fluorescence (female and male bAECs; female bAECs): 1002
- mean DCFH fluorescence (female and male bAECs; male bAECs): 1581
- effect on LDL oxidation (LDL): inhibit LDL oxidation
